Assays:
[1] = test system: chronic obstructive pulmonary disease model rats; assay: Chronic obstructive pulmonary disease (LPS plus passive smoking); type: in vivo, SD rats; details: gavage 3 weeks, FIG. 62
Protocol: After 5-week-old male SD rats were adaptively fed for 1 week, they were randomly grouped according to their body weights into five groups, i.e., a normal control group (normal, n=10), a model control group (Control, n=10), a TJ01-013 7.5 mg/kg treatment group (7.5 mg/kg, n=10), a TJ01-013 15 mg/kg treatment group (15 mg/kg, n=10), TJ01-013 30 mg/kg treatment group (30 mg/kg, n=10). The model was replicated using the intra-airway injection of lipopolysaccharide method combined with passive smoking method, which is a recognized model for chronic obstructive pulmonary disease. […] From the second day of modeling, the normal control group and the model control group were treated with vehicle (0.5% CMC-Na) by gavage, and the TJ01-013 treatment group was treated with the corresponding concentration of TJ01-013 in a volume of 10 ml/kg for a total of 3 weeks, and blood was collected from the posterior bulbous vein of the rat after administration, and the blood was centrifuged at 6,000 rpm for 10 min after standing still at room temperature for 30 min, then the upper layer of serum was taken, and the levels of TNFα and CXCL1 in serum were detected by enzyme-linked immunosorbent assay (ELISA).

[2] = test system: UUO model mice; assay: UUO-induced renal fibrosis; type: in vivo
Protocol: The UUO model is currently the most widely used experimental animal model for studying renal tubulointerstitial fibrosis. By ligating a unilateral ureter to cause obstruction of the renal drainage system, leading to acute alterations in renal function and chronic damage to renal structure, it simulates renal interstitial injury caused by ureteral obstruction, which is common in clinical practice. The modeling was performed as follows: • (1) On the first day of the test, mice were given 50 mg/kg sodium pentobarbital anesthesia, after confirming that the mice were under anesthesia and preparing and disinfecting the skin, an incision of about 1 cm at 1 cm left and below of the costovertebral angle was made, the left side of the kidney was fully exposed and the ureter was sought downward along the renal hilum, and the ureter was ligated with a 6-0 nylon thread, and after ligation, the muscle and the skin layers were sutured layer by layer. In the sham group, only the kidney was exposed, but it was not ligated, and sutured directly. The experiments were divided into a sham group (Sham, oral gavage of vehicle), a model control group (vehicle, oral gavage of vehicle), a TJ01-013 10 mg/kg treatment group ([…]), and the vehicle used is 0.5% CMC-Na, administered at a dose of 10 ml/kg, and the frequency of administration was once a day. The drug was administered continuously for 7 days after UUO surgery, at the endpoint of the test, immediately after the mice were put to death, saline was perfused through the heart until the blood in the kidneys was completely drained and the kidneys were transformed from a dark red color to khaki. The operated kidney on the side was collected, the kidney was cut through the short axis of the kidney, and the kidney tissue samples were stored separately according to the requirements of the test. • (2) Renal histopathology
Kidney tissues were fixed with 4% paraformaldehyde for 48 hours, paraffin-embedded, sectioned at a thickness of 4 μm, and Masson stained. Specific experimental procedures were performed as described previously, and after sectioning and scanning the images, the results were analyzed semi-quantitatively using Image J software.
Total RNA was extracted from kidney tissue samples by Tissue RNA Rapid Extraction Kit, and the concentration and purity of RNA were determined by micro-ultraviolet spectrophotometer, and then operated according to the instruction steps of HiScript® II 1st Strand cDNA Synthesis Kit, the cDNA was reversely transcribed with 1 μg of total amount of […], followed by a 15 ul amplification system, with 5 μL of cDNA, 7.5 μL of 2×SYBR Premix Ex Taq™, 0.3 μL of each of forward and reverse primers, and the rest was supplemented with double-distilled water. The conditions of the Bio-Rad reaction were 95° C. for 5 min, denaturation at 95° C. for 10 seconds, annealing/extension at 60° C. for 30 seconds for 40 cycles, and 65° C. for 15 min. The expression of the target gene was calculated by 2-ΔΔCt relative quantification. The Ct value of the target gene was first corrected by the internal reference gene (β-actin), and then compared with the control group to derive the relative expression level. […]

[3] = vs UUO+Vehicle, western blot, FIG. 31

Structure (SMILES): O=C(O)C[S+]([O-])c1cc(NS(=O)(=O)c2ccc(Br)cc2)c2ccccc2c1O (centres unmarked) [I-1]
- serum CXCL1 level ([1]; 15 mg/kg and 30 mg/kg): reduce
- serum TNFα level ([1]; 30 mg/kg): reduced the serum TNFα level, and the difference was significant
- Collagen volume fraction %, renal cortex (Masson) ([2]; 10 mg/kg TJ01-013, no significant effect vs model control 4.67%, FIG. 29): 5.58%
- Collagen volume fraction %, renal cortex (Masson) ([2]; 30 mg/kg TJ01-013, vs model control 4.67%, p<0.05, FIG. 29): 0.61%
- fibrosis in the renal medulla ([2]; FIG. 29): reducing effect on fibrosis
- autophagic vesicles with double-layer or multi-layer membrane structure in the cell (TEM) ([2]; FIG. 32): more autophagic vesicles
- morphology of renal tubular epithelial cells and mitochondria (TEM) ([2]; relative to normal and UUO, FIG. 32): in between the former two
- Col1a1 gene mRNA expression in renal tissue ([2]; vs UUO+Vehicle, FIG. 30): certain tendency to inhibit
- Fn1 gene mRNA expression in renal tissue ([2]; vs UUO+Vehicle, FIG. 30): significantly reduced
- collagen type I (collagen I) protein level in kidney [2, 3]: significantly reduced
- fibronectin FN protein level in kidney [2, 3]: significantly reduced
